Source: patent publication US8357694B2, “Substituted 5,6-dihydro-6-phenylbenzo[F]isoquinolin-2-amine compounds” (ArQule, Inc., priority 2008, dated 2013)
Where a name gives a salt, the structure may show the parent alone.

Tests used:
SNU-16 = assay: MTS assay, SNU-16; format: cell-based; details: Homo sapiens, SNU-16, SNU-16; read-out: MTS cell kill data (IC50-μM) SNU-16
Protocol: (§1) Cells were maintained at 37° C., 5% CO2 in DMEM media supplemented with 1% fetal bovine serum, penicillin/streptomycin and fungizone (Invitrogen). Cells were seeded into 96-well tissue culture plates at 3000 per well and cultured at 37° C. for 18 hours. Test compounds were dissolved and diluted to 300× in DMSO then diluted 1:40 in DMEM.

FGFR2 kinase = target: T1, FGFR2 kinase (Homo sapiens, UniProt P21802, N549H); assay: fluorescent ELISA FGFR2 kinase assay (biochemical); details: FGFR2 (N549H); read-out: Biochemical data (IC50-μM) FGFR2 (N549H)
T1 construct: purchased Millipore 14-742
T1 sequence (P21802 456-770 N549H limits assumed): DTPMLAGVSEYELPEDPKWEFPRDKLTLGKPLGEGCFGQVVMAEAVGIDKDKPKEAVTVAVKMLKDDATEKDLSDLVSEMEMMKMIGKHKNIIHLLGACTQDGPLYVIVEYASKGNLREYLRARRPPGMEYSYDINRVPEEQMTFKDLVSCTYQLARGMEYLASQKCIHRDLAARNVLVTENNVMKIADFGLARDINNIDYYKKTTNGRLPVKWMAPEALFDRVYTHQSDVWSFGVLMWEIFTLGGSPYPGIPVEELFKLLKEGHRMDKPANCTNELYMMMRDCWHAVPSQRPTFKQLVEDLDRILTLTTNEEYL
Protocol: The enzymatic assays described herein are conducted according to the following procedures from commercially available reagents. In one, non limiting, example, a fluorescent ELISA assay is used to identify and characterize inhibitors of FGFR2 kinase as described herein. This heterogeneous assay utilizes a biotinylated peptide with a tyrosine motif as a substrate and an anti-phospho-tyrosine antibody to measure phosphorylation of the substrate. […] The reaction is incubated for 60 minutes. As the reaction proceeds, FGFR2 phosphorylates tyrosines in the peptide. […] Peptides are captured for 30 minutes at room temperature, the phosphorylation of peptides continues during this phase. The reaction is stopped by washing the streptavidin-coated plate 6 times with TBST. […] Unbound anti-phospho-tyrosine antibody is removed by washing the streptavidin-coated plate 6 times with TBST. […] Unbound secondary antibody is removed by washing the streptavidin-coated plate 6 times with TBST.

KATO III = assay: MTS assay, KATO III; format: cell-based
Protocol: as §1

MDA-MB-231 = assay: MTS cell kill, MDA-MB-231; format: cell-based
Protocol: as §1

PACA-2 = assay: MTS cell kill, PACA-2; format: cell-based
Protocol: as §1

DLD-1 = assay: MTS cell kill, DLD-1; format: cell-based
Protocol: as §1

NCI-H1299 = assay: MTS cell kill, NCI-H1299; format: cell-based
Protocol: as §1

SMILES	IC50 (SNU-16) [µM]	IC50 (FGFR2 kinase) [µM]	MTS cell kill data (% inhibition) KATO III (KATO III)	MTS cell kill data (% inhibition) MDA-MB-231 (MDA-MB-231)	MTS cell kill data (% inhibition) PACA-2 (PACA-2)	MTS cell kill data (% inhibition) DLD-1 (DLD-1)	MTS cell kill data (% inhibition) NCI-H1299 (NCI-H1299)	melting point [°C]
COCCN1CCN(CCc2ccc(Nc3ncc4c(n3)-c3ccccc3[C@H](c3cccc(Br)c3)C4)cc2)CC1 [Example 77, (S)-6-(3-bromophenyl)-N-(4-(2-(4-(2-methoxyethyl)piperazin-1-yl)ethyl)phenyl)-5,6-dihydrobenzo[h]quinazolin-2-amine hydrochloride]	4.47	0.118	–	–	–	–	–	–
CN1CCN(CCCNc2ncc3c(n2)-c2ccccc2C(c2ccc(NCc4ccc5c(c4)CCO5)cc2)C3)CC1 (stereo not shown) [Example 572, 6-{4-[(2,3-dihydro-1-benzofuran-5-ylmethyl)amino]phenyl}-N-[3-(4-methylpiperazin-1-yl)propyl]-5,6-dihydrobenzo[h]quinazolin-2-amine]	–	–	A (A = 80-100% inhibition)	A (A = 80-100% inhibition)	A (A = 80-100% inhibition)	A (A = 80-100% inhibition)	A (A = 80-100% inhibition)	–
COCCN1CCN(CCc2ccc(Nc3ncc4c(n3)-c3ccccc3[C@H](c3ccc(Cl)c(Cl)c3)C4)cc2)CC1 [Example 115, (S)-6-(3,4-dichlorophenyl)-N-(4-(2-(4-(2-methoxyethyl)piperazin-1-yl)ethyl)phenyl)-5,6-dihydrobenzo[h]quinazolin-2-amine hydrochloride]	3.03	0.211	–	–	–	–	–	–
Brc1ccc([C@@H]2Cc3cnc(Nc4ccc(CCN5CCCCC5)cc4)nc3-c3ccccc32)cc1 [Example 103, (S)-6-(4-bromophenyl)-N-(4-(2-(piperidin-1-yl)ethyl)phenyl)-5,6-dihydrobenzo[h]quinazolin-2-amine hydrochloride salt]	3.57	0.178	–	–	–	–	–	–
Fc1ccc([C@@H]2Cc3cnc(Nc4ccc(CCN5CCCCC5)cc4)nc3-c3ccccc32)cc1 [Example 101, (S)-6-(4-fluorophenyl)-N-(4-(2-(piperidin-1-yl)ethyl)phenyl)-5,6-dihydrobenzo[h]quinazolin-2-amine]	4.03	0.177	–	–	–	–	–	185 to 188
N#Cc1cccc(NC(=O)N2CCC3(CC2)Cc2cnc(Nc4ccc(N5CCNCC5)cc4)nc2-c2ccccc23)c1 [Example 412, N-(3-cyanophenyl)-2-[(4-piperazin-1-ylphenyl)amino]-1′H,5H-spiro[benzo[h]quinazoline-6,4′-piperidine]-1′-carboxamide]	–	–	A (A = 80-100% inhibition)	A (A = 80-100% inhibition)	A (A = 80-100% inhibition)	A (A = 80-100% inhibition)	A (A = 80-100% inhibition)	–
CNc1ncc2c(n1)-c1ccccc1C1(CCN(C(=O)Nc3ccc(Oc4ccccc4)cc3)CC1)C2 [Example 406, 2-(methylamino)-N-(4-phenoxyphenyl)-1′H,5H-spiro[benzo[h]quinazoline-6,4′-piperidine]-1′-carboxamide]	–	–	A (A = 80-100% inhibition)	A (A = 80-100% inhibition)	A (A = 80-100% inhibition)	A (A = 80-100% inhibition)	A (A = 80-100% inhibition)	–
CCCCN(C)CCc1ccc(Nc2ncc3c(n2)-c2ccccc2[C@H](c2ccc(Cl)c(Cl)c2)C3)cc1 [Example 105, (S)-N-(4-(2-(butyl(methyl)amino)ethyl)phenyl)-6-(3,4-dichlorophenyl)-5,6-dihydrobenzo[h]quinazolin-2-amine hydrochloride salt]	5.03	0.499	–	–	–	–	–	–
CN(CCc1ccc(Nc2ncc3c(n2)-c2ccccc2[C@H](c2ccc(F)cc2)C3)cc1)C1CCCCC1 [Example 102, (S)-N-(4-(2-(cyclohexyl(methyl)amino)ethyl)phenyl)-6-(4-fluorophenyl)-5,6-dihydrobenzo[h]quinazolin-2-amine]	3.22	0.26	–	–	–	–	–	–
CN1CCN(CCCNc2ncc3c(n2)-c2ccccc2C(c2ccc(NCc4ccccc4F)cc2)C3)CC1 (stereo not shown) [Example 574, 6-{4-[(2-fluorobenzyl)amino]phenyl}-N-[3-(4-methylpiperazin-1-yl)propyl]-5,6-dihydrobenzo[h]quinazolin-2-amine]	–	–	A (A = 80-100% inhibition)	A (A = 80-100% inhibition)	A (A = 80-100% inhibition)	A (A = 80-100% inhibition)	A (A = 80-100% inhibition)	–
COCCNCCc1cc(Nc2ncc3c(n2)-c2ccccc2[C@H](c2ccccc2F)C3)ccc1F [Example 173, (R)-N-(4-fluoro-3-(2-(2-methoxyethylamino)ethyl)phenyl)-6-(2-fluorophenyl)-5,6-dihydrobenzo[h]quinazolin-2-amine hydrochloride salt]	0.519	0.0359	–	–	–	–	–	–
COCCNCCc1ccc(Nc2ncc3c(n2)-c2ccccc2[C@H](c2ccc(F)c(F)c2)C3)cc1 [Example 86, (S)-6-(3,4-difluorophenyl)-N-(4-(2-(2-methoxyethylamino)ethyl)phenyl)-5,6-dihydrobenzo[h]quinazolin-2-amine hydrochloride]	5.13	0.267	–	–	–	–	–	–
CN(CCc1ccccc1)CCc1ccc(Nc2ncc3c(n2)-c2ccccc2[C@H](c2ccccc2F)C3)cc1 [Example 93, (R)-6-(2-fluorophenyl)-N-(4-(2-(methyl(phenethyl)amino)ethyl)phenyl)-5,6-dihydrobenzo[h]quinazolin-2-amine hydrochloride salt]	3.25	0.296	–	–	–	–	–	–
CCCc1ccc(CNc2ccc(C3Cc4cnc(NCCCN5CCN(C)CC5)nc4-c4ccccc43)cc2)cc1 (stereo not shown) [Example 569, N-[3-(4-methylpiperazin-1-yl)propyl]-6-{4-[(4-propylbenzyl)amino]phenyl}-5,6-dihydrobenzo[h]quinazolin-2-amine]	–	–	A (A = 80-100% inhibition)	A (A = 80-100% inhibition)	A (A = 80-100% inhibition)	A (A = 80-100% inhibition)	A (A = 80-100% inhibition)	–
CNc1ncc2c(n1)-c1ccccc1C1(CCN(C(=O)Nc3ccc(C#N)cc3)CC1)C2 [Example 397, N-(4-cyanophenyl)-2-(methylamino)-1′H,5H-spiro[benzo[h]quinazoline-6,4′-piperidine]-1′-carboxamide]	–	–	A (A = 80-100% inhibition)	B (B = 50-79% inhibition)	A (A = 80-100% inhibition)	B (B = 50-79% inhibition)	C (C = <50% inhibition)	–
N#Cc1cccc(NC(=O)N2CCC3(CC2)Cc2cnc(Nc4ccc(CCO)cc4)nc2-c2ccccc23)c1 [Example 413, N-(3-cyanophenyl)-2-{[4-(2-hydroxyethyl)phenyl]amino}-1′H,5H-spiro[benzo[h]quinazoline-6,4′-piperidine]-1′-carboxamide]	–	–	A (A = 80-100% inhibition)	A (A = 80-100% inhibition)	A (A = 80-100% inhibition)	A (A = 80-100% inhibition)	B (B = 50-79% inhibition)	–
COCCNCCc1ccc(Nc2ncc3c(n2)-c2ccccc2[C@H](c2ccccc2F)C3)cc1 [Example 94, (R)-6-(2-fluorophenyl)-N-(4-(2-(2-methoxyethylamino)ethyl)phenyl)-5,6-dihydrobenzo[h]quinazolin-2-amine hydrochloride salt]	0.895	0.00999	–	–	–	–	–	–
CN(CCc1ccc(Nc2ncc3c(n2)-c2ccccc2[C@H](c2ccccc2F)C3)cc1)C1CCCCC1 [Example 95, (R)-N-(4-(2-(cyclohexyl(methyl)amino)ethyl)phenyl)-6-(2-fluorophenyl)-5,6-dihydrobenzo[h]quinazolin-2-amine]	1.13	0.24	–	–	–	–	–	–
